In publication PMC3706206 (Chemico-biological interactions, 2011):
Like-named read-outs stand apart in the source and are kept apart here.

Tests used:
[1] = target: T1, GST (human placenta, hGSTP1-1) (Homo sapiens, UniProt P09211); experiment: GST substrate assay; type: biochemical; conditions: for substrate for GST (GSH consumption as biomarker): GST 0.1 U/mL, GSH 500 µM, no tyrosinase, up to 60 min at 37 °C
[2] = target: T2, human placenta GST (hGSTP1-1) (Homo sapiens, UniProt P09211); experiment: Inhibition of human placenta GST; type: biochemical; conditions: for GST inhibition in the absence and presence of tyrosinase: controls; for GST activity inhibition: quinone formed with tyrosinase; for GST inhibition: 25 µM
T2 sequence (P09211 2-210 limits assumed): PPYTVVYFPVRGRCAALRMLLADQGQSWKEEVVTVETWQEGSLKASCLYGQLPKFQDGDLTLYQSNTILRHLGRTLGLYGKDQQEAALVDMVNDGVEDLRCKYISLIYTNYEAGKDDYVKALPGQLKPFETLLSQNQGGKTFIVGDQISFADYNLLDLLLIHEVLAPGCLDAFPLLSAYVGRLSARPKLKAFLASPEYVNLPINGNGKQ

SK-MEL-28 melanoma cells [3] = experiment: MTT cell cytotoxicity assay; type: cell-based, human; conditions: for IC50: Homo sapiens, SK-MEL-28, 48 h, read-out: IC50 (48 h)
tyrosinase = experiment: Metabolism by tyrosinase; type: biochemical, Mushroom
SK-MEL-28 melanoma cells [4] = experiment: Effect of modulators on CAPE toxicity; type: cell-based, human; conditions: for MTT assay value, No modulator / MTT assay value, Ethacrynic acid (2 µM) / MTT assay value, MK-571 (10 µM) / MTT assay value, Probenecid (500 µM): 48 h; for MTT assay value, Ethacrynic acid (2 µM): 1 h pretreatment with EA; for MTT assay value, MK-571 (10 µM): 1 h pretreatment with MK-571; for MTT assay value, Probenecid (500 µM): 1 h pretreatment with probenecid; for MTT assay value, modulator alone, Cells (1% DMSO) / MTT assay value, modulator alone, Cells: no CAPE, MK-571 10 µM, probenecid 500 µM, ethacrynic acid 2 µM; for decrease of the IC50 value of CAPE (30 µM): MK-571 10 µM or probenecid 500 µM with CAPE 30 µM
[5] = target: T2, human placenta GST (hGSTP1-1); experiment: Reversible/irreversible nature of GST inhibition; type: biochemical; conditions: GST activity after filtering the reaction mixture through 10 K Millipore filter; 25 µM
[6] = target: T1, GST (human placenta, hGSTP1-1); experiment: Competitive and non-competitive GST inhibition, Lineweaver-Burk plots, Ki; type: biochemical; conditions: for Mechanism of GST inhibition, with respect to GSH (0.2–1 mM): Inhibition / Mechanism of GST inhibition, with respect to CDNB (0.2–1 mM): Inhibition: CAPE 100 µM, CAPE-quinone 10 µM, CAPE-SG 10 µM, EA 20 µM; for Ki′ with respect to GSH (0.2–1 mM) / Ki′ with respect to CDNB (0.2–1 mM): mixed inhibition; for Ki: apparent Ki
[7] = cited from earlier work
SK-MEL-28 cells = experiment: Annexin V-FITC/propidium iodide apoptosis assay; type: cell-based, human; conditions: for increase of CAPE (15 µM) induced apoptotic cell death / increase of CAPE (30 µM) induced apoptotic cell death: MK-571 10 µM or probenecid 500 µM, 1 h pretreatment, 48 h
SK-MEL-28 melanoma cells [8] = experiment: Mitochondrial membrane potential assay; type: cell-based, human; conditions: for increase of the effect of CAPE (15–30 µM) on mitochondrial membrane potential: MK-571 10 µM or probenecid 500 µM, approximate; for further decrease of mitochondrial membrane potential for CAPE (15 µM) / further decrease of mitochondrial membrane potential for CAPE (30 µM): combination with MK-571 10 µM or probenecid 500 µM, 48 h
[9] = system: GST in human SK-MEL-28 melanoma cell homogenate; experiment: Inhibition of GST in human SK-MEL-28 melanoma cell homogenate; type: biochemical; conditions: 15–100 µM, in the presence of tyrosinase (10 U/mL)
[10] = 30 µM, 48 h incubation (data not shown)
[11] = read-out: Ki with respect to CDNB (0.2–1 mM), GSH 1 mM
[12] = read-out: Ki with respect to GSH (0.2–1 mM), CDNB 1 mM

T1 sequence (P09211 2-210 limits assumed): as above

COc1ccc(O)cc1 [4-HA, 4-hydroxyanisole]
substrate for GST (GSH consumption as biomarker) [1]: none of these tested compounds, including CAPE, 4-HA, tyrosine, and CA, was a substrate for GST | GST inhibition in the absence and presence of tyrosinase [2]: no GST inhibition | cell toxicity (SK-MEL-28 melanoma cells [3]; [10]): 2–27% | IC50 (SK-MEL-28 melanoma cells [3]): 60 µM | substrate for tyrosinase (tyrosinase): substrates for tyrosinase

COC1=CC(=O)C(=O)C=C1 [4-HA-quinone]
GST activity inhibition ([2]; 50 µM): no significant GST inhibition

CCCCS(=N)(=O)CCC(N)C(=O)O (centres unmarked) [BSO]
effect on CAPE induced toxicity in SK-MEL-28 cells (SK-MEL-28 melanoma cells [4]; data not shown): enhanced

O=C(O)/C=C/c1ccc(O)c(O)c1 [CA, caffeic acid]
substrate for GST (GSH consumption as biomarker) [1]: none of these tested compounds, including CAPE, 4-HA, tyrosine, and CA, was a substrate for GST | reversible or irreversible nature of GST inhibition [5]: weak and reversible inhibitors of GST | cell toxicity (SK-MEL-28 melanoma cells [3]; [10]): 2–27% | IC50 (SK-MEL-28 melanoma cells [3]): 2300 µM | substrate for tyrosinase (tyrosinase): substrates for tyrosinase

O=C(O)/C=C/C1=CC(=O)C(=O)C=C1 [CA-quinone]
reversible or irreversible nature of GST inhibition [5]: irreversibly

O=C(/C=C/c1ccc(O)c(O)c1)OCCc1ccccc1 [CAPE, caffeic acid phenethyl ester]
substrate for GST (GSH consumption as biomarker) [1]: none of these tested compounds, including CAPE, 4-HA, tyrosine, and CA, was a substrate for GST | inhibition at 50 µM ([2]; read-out: GST activity inhibition): 13% | reversible or irreversible nature of GST inhibition [5]: weak and reversible inhibitors of GST | Mechanism of GST inhibition, with respect to GSH (0.2–1 mM): Inhibition ([6]; CDNB 1 mM): Mixed | Ki′ with respect to GSH (0.2–1 mM) ([6]; CDNB 1 mM): 2990 µM | Mechanism of GST inhibition, with respect to CDNB (0.2–1 mM): Inhibition ([6]; GSH 1 mM): Mixed | Ki′ with respect to CDNB (0.2–1 mM) ([6]; GSH 1 mM): 451 µM | Ki ([6]; Ki with respect to CDNB (0.2–1 mM), GSH 1 mM): 233000 nM | Ki ([6]; Ki with respect to GSH (0.2–1 mM), CDNB 1 mM): 942000 nM | cell toxicity (SK-MEL-28 melanoma cells [3]; 15 µM, 48 h incubation): 48% | IC50 (SK-MEL-28 melanoma cells [3]): 15 µM | MTT assay value, No modulator (SK-MEL-28 melanoma cells [4]; CAPE 15 µM): 52 ± 2 | MTT assay value, Ethacrynic acid (2 µM) (SK-MEL-28 melanoma cells [4]; CAPE 15 µM): 51 ± 2 | MTT assay value, MK-571 (10 µM) (SK-MEL-28 melanoma cells [4]; CAPE 15 µM): 39 ± 3 | MTT assay value, Probenecid (500 µM) (SK-MEL-28 melanoma cells [4]; CAPE 15 µM): 31 ± 2 | MTT assay value, No modulator (SK-MEL-28 melanoma cells [4]; CAPE 30 µM): 38 ± 2 | MTT assay value, Ethacrynic acid (2 µM) (SK-MEL-28 melanoma cells [4]; CAPE 30 µM): 39 ±4 | MTT assay value, MK-571 (10 µM) (SK-MEL-28 melanoma cells [4]; CAPE 30 µM): 26 ± 1 | MTT assay value, Probenecid (500 µM) (SK-MEL-28 melanoma cells [4]; CAPE 30 µM): 29 ± 1 | substrate for tyrosinase (tyrosinase): substrates for tyrosinase | CAPE metabolized by tyrosinase (tyrosinase; after a 60-min incubation): 90% | stability in human plasma [7]: highly stable

O=C(/C=C/C1=CC(=O)C(=O)C=C1)OCCc1ccccc1 [CAPE-quinone]
GST activity inhibition ([2]; 10 µM): 70% | GST inhibition [2]: ≥ 85% | GST activity inhibition ([2]; 50 µM): 93% | reversible or irreversible nature of GST inhibition [5]: irreversible covalent binding | Mechanism of GST inhibition, with respect to GSH (0.2–1 mM): Inhibition ([6]; CDNB 1 mM): Competitive | Mechanism of GST inhibition, with respect to CDNB (0.2–1 mM): Inhibition ([6]; GSH 1 mM): Mixed | Ki′ with respect to CDNB (0.2–1 mM) ([6]; GSH 1 mM): 8.8 µM | Ki [6, 11]: 2700 nM | Ki [6, 12]: 700 nM

O=[N+]([O-])c1ccc(Cl)c([N+](=O)[O-])c1 [CDNB, 1-chloro-2,4-dinitrobenzene]
glutathione consumed per mole of CDNB ([1]; CDNB metabolized by GST, 60 min incubation, positive control): 0.6 mol

C=C(CC)C(=O)c1ccc(OCC(=O)O)c(Cl)c1Cl [Ethacrynic acid, ethacrynic acid]
effect on the IC50 value of CAPE towards melanoma cells (SK-MEL-28 melanoma cells [4]; EA 2 µM): did not affect | MTT assay value, modulator alone, Cells (1% DMSO) (SK-MEL-28 melanoma cells [4]): 96 ± 3 | MTT assay value, modulator alone, Cells (SK-MEL-28 melanoma cells [4]): 97 ± 4

CN(C)C(=O)CCSC(SCCC(=O)O)c1cccc(/C=C/c2ccc3ccc(Cl)cc3n2)c1 (centres unmarked) [MK-571]
decrease of the IC50 value of CAPE (30 µM) (SK-MEL-28 melanoma cells [4]): 12% | MTT assay value, modulator alone, Cells (1% DMSO) (SK-MEL-28 melanoma cells [4]): 97 ± 1 | MTT assay value, modulator alone, Cells (SK-MEL-28 melanoma cells [4]): 98 ± 3 | increase of CAPE (15 µM) induced apoptotic cell death (SK-MEL-28 cells): 3% | increase of CAPE (30 µM) induced apoptotic cell death (SK-MEL-28 cells): 7% | increase of the effect of CAPE (15–30 µM) on mitochondrial membrane potential (SK-MEL-28 melanoma cells [8]): 3–4 fold | further decrease of mitochondrial membrane potential for CAPE (15 µM) (SK-MEL-28 melanoma cells [8]): 10% | further decrease of mitochondrial membrane potential for CAPE (30 µM) (SK-MEL-28 melanoma cells [8]): 29%

CCCN(CCC)S(=O)(=O)c1ccc(C(=O)O)cc1 [probenecid]
decrease of the IC50 value of CAPE (30 µM) (SK-MEL-28 melanoma cells [4]): 9% | MTT assay value, modulator alone, Cells (1% DMSO) (SK-MEL-28 melanoma cells [4]): 99 ± 6 | MTT assay value, modulator alone, Cells (SK-MEL-28 melanoma cells [4]): 97 ± 5 | increase of CAPE (15 µM) induced apoptotic cell death (SK-MEL-28 cells): 13% | increase of CAPE (30 µM) induced apoptotic cell death (SK-MEL-28 cells): 16% | change of CAPE-induced apoptotic cell death (SK-MEL-28 cells; probenecid 500 µM, CAPE at 15 or 30 µM): approximately doubled | increase of the effect of CAPE (15–30 µM) on mitochondrial membrane potential (SK-MEL-28 melanoma cells [8]): 8–11 fold | further decrease of mitochondrial membrane potential for CAPE (15 µM) (SK-MEL-28 melanoma cells [8]): 56% | further decrease of mitochondrial membrane potential for CAPE (30 µM) (SK-MEL-28 melanoma cells [8]): 68%

N[C@@H](Cc1ccc(O)cc1)C(=O)O [tyrosine, L-tyrosine]
substrate for GST (GSH consumption as biomarker) [1]: none of these tested compounds, including CAPE, 4-HA, tyrosine, and CA, was a substrate for GST | GST inhibition in the absence and presence of tyrosinase [2]: no GST inhibition | GST inhibition in SK-MEL-28 melanoma cell homogenate [9]: did not show any significant GST inhibition | cell toxicity (SK-MEL-28 melanoma cells [3]; [10]): 2–27% | IC50 (SK-MEL-28 melanoma cells [3]): > 5000 µM | substrate for tyrosinase (tyrosinase): substrates for tyrosinase

N[C@@H](CC1=CC(=O)C(=O)C=C1)C(=O)O [tyrosine–quinone]
GST activity inhibition ([2]; 50 µM): no significant GST inhibition

caffeic acid glutathione conjugate [CA-SG conjugate]
reversible or irreversible nature of GST inhibition [5]: reversibly

caffeic acid phenethyl ester glutathione conjugate [CAPE-SG conjugate]
GST inhibition [2]: ≥ 85% | reversible or irreversible nature of GST inhibition [5]: reversible | Mechanism of GST inhibition, with respect to GSH (0.2–1 mM): Inhibition ([6]; CDNB 1 mM): Mixed | Ki′ with respect to GSH (0.2–1 mM) ([6]; CDNB 1 mM): 14 µM | Mechanism of GST inhibition, with respect to CDNB (0.2–1 mM): Inhibition ([6]; GSH 1 mM): Competitive | Ki [6, 11]: 3100 nM | Ki [6, 12]: 2600 nM
